Experimental data taken from the supplement of paper PMC11061612.

Experiments:
Assay in all cases: combination Emax (second highest fraction inhibited in the dose matrix, 72 h); higher = more inhibition; extreme values may be limits of the assay
[1] = test system: BFTC-909 (Kidney Carcinoma)
Method in brief: (§1)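 Cell lines in DMEM/F12 or RPMI with 10% FBS were plated in 1536-well plates, held 24 hours at 37°C, 5% CO2, then given two-drug dose matrices for 72 hours (DMSO typically 0.2%). Viability was read by CellTiter-Glo 2.0 luminescence and scaled as inhibition from 0 (vehicle wells) to 1 (blank wells). Combination Emax is the second-highest inhibition in the matrix; Bliss excess is observed combination effect minus expected EA + EB − EA·EB, EA and EB being single-agent effects.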

[2] = test system: CAL-33 (Oral Cavity Carcinoma)
Method in brief: as §1

[3] = test system: SAS (Oral Cavity Carcinoma)
Method in brief: as §1

[4] = test system: HH (T-Cell Non-Hodgkin's Lymphoma)
Method in brief: as §1

[5] = test system: NCI-H524 (Small Cell Lung Carcinoma)
Method in brief: as §1

[6] = test system: SW1710 (Bladder Carcinoma)
Method in brief: as §1

[7] = test system: HeLa (Cervical Carcinoma)
Method in brief: as §1

[8] = test system: OE21 (Esophageal Squamous Cell Carcinoma)
Method in brief: as §1

[9] = test system: LNZTA3WT4 (Low Grade Glioma)
Method in brief: as §1

[10] = test system: Hs-746T (Gastric Carcinoma)
Method in brief: as §1

[11] = test system: ESS-1 (Other Solid Carcinomas)
Method in brief: as §1

[12] = test system: OV-56 (Ovarian Carcinoma)
Method in brief: as §1

[13] = test system: TGBC1TKB (Biliary Tract Carcinoma)
Method in brief: as §1

[14] = test system: SNU-449 (Hepatocellular Carcinoma)
Method in brief: as §1

[15] = test system: CAL-72 (Osteosarcoma)
Method in brief: as §1

[16] = test system: SNU-16 (Gastric Carcinoma)
Method in brief: as §1

[17] = test system: BE2-M17 (Neuroblastoma)
Method in brief: as §1

[18] = test system: WSU-NHL (B-Cell Non-Hodgkin's Lymphoma)
Method in brief: as §1

[19] = test system: SW1573 (Lung Adenocarcinoma)
Method in brief: as §1

[20] = test system: EW-11 (Ewing's Sarcoma)
Method in brief: as §1

SMILES | combination Emax [1] | combination Emax [2] | combination Emax [3] | combination Emax [4] | combination Emax [5] | combination Emax [6] | combination Emax [7] | combination Emax [8] | combination Emax [9] | combination Emax [10] | combination Emax [11] | combination Emax [12] | combination Emax [13] | combination Emax [14] | combination Emax [15] | combination Emax [16] | combination Emax [17] | combination Emax [18] | combination Emax [19] | combination Emax [20]
NC1(C(=O)N[C@@H](CCO)c2ccc(Cl)cc2)CCN(c2ncnc3[nH]ccc23)CC1 [Capivasertib] + Cn1cnc2c(F)c(Nc3ccc(Br)cc3Cl)c(C(=O)NOCCO)cc21 [Selumetinib] (first compound max 10 µM, 7x7, partner max 10 µM) | 0.734 | 0.789 | 0.615 | 0.246 | 0.303 | 0.409 | 0.253 | 0.924 | 0.445 | 0.691 | 0.526 | 0.398 | 0.475 | 0.205 | 0.305 | 0.461 | 0.654 | 0.92 | 0.362 | 0.453
NC1(C(=O)N[C@@H](CCO)c2ccc(Cl)cc2)CCN(c2ncnc3[nH]ccc23)CC1 [Capivasertib] + COc1nnc2ccc(N3CCC(c4ccc(OCCN5CCN(C)C(=O)[C@H]5C)cc4)CC3)nn12 [AZD5153] (first compound max 10 µM, 7x7, partner max 1 µM) | 0.678 | 0.749 | 0.801 | 0.439 | 0.667 | 0.587 | 0.423 | 0.882 | 0.57 | 0.599 | 0.738 | 0.41 | 0.39 | 0.224 | 0.481 | 0.854 | 0.696 | 1 | 0.409 | 0.948
COc1nnc2ccc(N3CCC(c4ccc(OCCN5CCN(C)C(=O)[C@H]5C)cc4)CC3)nn12 [AZD5153] + CC1(C)CCC(CN2CCN(c3ccc(C(=O)NS(=O)(=O)c4ccc(NCC5CCOCC5)c([N+](=O)[O-])c4)c(Oc4cnc5[nH]ccc5c4)c3)CC2)=C(c2ccc(Cl)cc2)C1 [Venetoclax] (first compound max 1 µM, 7x7, partner max 1 µM) | 0.496 | 0.402 | 0.754 | 0.406 | 0.694 | 0.291 | 0.433 | 0.662 | 0.344 | 0.512 | 0.63 | 0.24 | 0.293 | 0.252 | 0.495 | 0.731 | 0.621 | 0.978 | 0.43 | 0.457
Cc1c2c(nn1C)CSCc1cc(n(C)n1)CSc1cc(c3ccccc3c1)OCCCc1c(C(=O)O)n(C)c3c-2c(Cl)ccc13 [AZD5991] + C=CCn1c(=O)c2cnc(Nc3ccc(N4CCN(C)CC4)cc3)nc2n1-c1cccc(C(C)(C)O)n1 [AZD1775] (first compound max 1 µM, partner max 1 µM) | 0.944 | 0.802 | 0.625 | 0.77 | 0.816 | 0.344 | 0.841 | 0.719 | 0.823 | 0.605 | 0.988 | 0.244 | 0.303 | 0.302 | 0.782 | 1 | 0.986 | 0.954 | 0.44 | 0.863
COc1nnc2ccc(N3CCC(c4ccc(OCCN5CCN(C)C(=O)[C@H]5C)cc4)CC3)nn12 [AZD5153] + C[C@@H]1COCCN1C2=NC(=NC(=C2)C3(CC3)[S@](=N)(=O)C)C4=C5C=CNC5=NC=C4 [AZD6738] (first compound max 1 µM, 7x7, partner max 10 µM) | 0.876 | 0.839 | 0.921 | 0.491 | 0.915 | 0.396 | 0.589 | 0.858 | 0.809 | 0.63 | 0.949 | 0.793 | 0.508 | 0.166 | 0.784 | 0.98 | 0.92 | 0.99 | 0.557 | 0.692
NC1(C(=O)N[C@@H](CCO)c2ccc(Cl)cc2)CCN(c2ncnc3[nH]ccc23)CC1 [Capivasertib] + C[C@@H]1COCCN1C2=NC(=NC(=C2)C3(CC3)[S@](=N)(=O)C)C4=C5C=CNC5=NC=C4 [AZD6738] (first compound max 10 µM, 7x7, partner max 10 µM) | 0.869 | 0.918 | 0.829 | 0.349 | 0.712 | 0.596 | 0.518 | 0.858 | 0.79 | 0.582 | 0.959 | 0.542 | 0.559 | 0.262 | 0.842 | 0.973 | 0.702 | 1 | 0.461 | 0.753
Cc1c2c(nn1C)CSCc1cc(n(C)n1)CSc1cc(c3ccccc3c1)OCCCc1c(C(=O)O)n(C)c3c-2c(Cl)ccc13 [AZD5991] + C[C@@H]1COCCN1C2=NC(=NC(=C2)C3(CC3)[S@](=N)(=O)C)C4=C5C=CNC5=NC=C4 [AZD6738] (first compound max 1 µM, 7x7, partner max 10 µM) | 0.931 | 0.901 | 0.849 | 0.759 | 0.854 | 0.436 | 0.856 | 0.844 | 0.761 | 0.551 | 0.958 | 0.558 | 0.403 | 0.198 | 0.832 | 1 | 0.991 | 0.994 | 0.368 | 0.932
NC1(C(=O)N[C@@H](CCO)c2ccc(Cl)cc2)CCN(c2ncnc3[nH]ccc23)CC1 [Capivasertib] + CC(C)n1c(=O)n(C)c2cnc3cc(F)c(-c4ccc(OCCCN5CCCCC5)nc4)cc3c21 [AZD1390] (first compound max 10 µM, 7x7, partner max 0.3 µM) | 0.622 | 0.478 | 0.26 | 0.256 | 0.343 | 0.348 | 0.199 | 0.621 | 0.372 | 0.332 | 0.46 | 0.209 | 0.358 | 0.174 | 0.265 | 0.225 | 0.177 | 0.882 | 0.235 | 0.511
